Data as given in the kinase profiling compilation of Christmann-Franck et al. (2016).

Tests used:
Experiment in all cases: radiometric filter-binding kinase assay
PHKG1 (human) = PHKG1 (human) (UniProt Q16816)
RIPK2 (human) = RIPK2 (human) (UniProt O43353)
MINK1 (human) = MINK1 (human) (UniProt Q8N4C8)
PRKAA1 or PRKAA2 (rat) = conditions: accession and sequence are those of the human protein
INSRR (human) = INSRR (human) (UniProt P14616)
MAPK15 (human) = MAPK15 (human) (UniProt Q8TD08)
SRPK1 (human) = SRPK1 (human) (UniProt Q96SB4)
PRKCA (human) = PRKCA (human) (UniProt P17252)
MARK2 (human) = MARK2 (human) (UniProt Q7KZI7)
JAK2 JH1 JH2 (human) = JAK2 JH1 JH2 (human) (UniProt O60674)
MARK1 (human) = MARK1 (human) (UniProt Q9P0L2)
MKNK1 (human) = MKNK1 (human) (UniProt Q9BUB5)
EPHA2 (human) = EPHA2 (human) (UniProt P29317); conditions: compound 10.0 µM
CaMK1 (human) = CaMK1 (human) (UniProt Q14012)
MST4 (human) = MST4 (human) (UniProt Q9P289)
MAPKAPK2 (human) = MAPKAPK2 (human) (UniProt P49137)
CSK (human) = CSK (human) (UniProt P41240)
CDK2 CCNA2 (human) = CDK2 CCNA2 (human) (UniProt P20248+P24941)
CAMKK2 (human) = CAMKK2 (human) (UniProt Q96RR4)
NEK6 (human) = NEK6 (human) (UniProt Q9HC98)
BRSK1 (human) = BRSK1 (human) (UniProt Q8TDC3)
MAP2K1 (human) = MAP2K1 (human) (UniProt Q02750)
DYRK2 (human) = DYRK2 (human) (UniProt Q92630)
ERBB4 (human) = ERBB4 (human) (UniProt Q15303); conditions: compound 10.0 µM
BTK (human) = BTK (human) (UniProt Q06187)
RPS6KA5 KD1 KD2 (human) = RPS6KA5 KD1 KD2 (human) (UniProt O75582); conditions: compound 1.0 µM
EPHB2 (human) = EPHB2 (human) (UniProt P29323)
PAK7 (human) = PAK7 (human) (UniProt Q9P286)
NUAK1 (human) = NUAK1 (human) (UniProt O60285); conditions: compound 1.0 µM
EPHA4 (human) = EPHA4 (human) (UniProt P54764)
NEK2 (human) = NEK2 (human) (UniProt P51955)
LCK (mouse) = conditions: accession and sequence are those of the human protein
INSR (human) = INSR (human) (UniProt P06213); conditions: compound 10.0 µM
PRKACA (human) = PRKACA (human) (UniProt P17612)

MINK1 (human), sequence (Q8N4C8 whole entry, looked up): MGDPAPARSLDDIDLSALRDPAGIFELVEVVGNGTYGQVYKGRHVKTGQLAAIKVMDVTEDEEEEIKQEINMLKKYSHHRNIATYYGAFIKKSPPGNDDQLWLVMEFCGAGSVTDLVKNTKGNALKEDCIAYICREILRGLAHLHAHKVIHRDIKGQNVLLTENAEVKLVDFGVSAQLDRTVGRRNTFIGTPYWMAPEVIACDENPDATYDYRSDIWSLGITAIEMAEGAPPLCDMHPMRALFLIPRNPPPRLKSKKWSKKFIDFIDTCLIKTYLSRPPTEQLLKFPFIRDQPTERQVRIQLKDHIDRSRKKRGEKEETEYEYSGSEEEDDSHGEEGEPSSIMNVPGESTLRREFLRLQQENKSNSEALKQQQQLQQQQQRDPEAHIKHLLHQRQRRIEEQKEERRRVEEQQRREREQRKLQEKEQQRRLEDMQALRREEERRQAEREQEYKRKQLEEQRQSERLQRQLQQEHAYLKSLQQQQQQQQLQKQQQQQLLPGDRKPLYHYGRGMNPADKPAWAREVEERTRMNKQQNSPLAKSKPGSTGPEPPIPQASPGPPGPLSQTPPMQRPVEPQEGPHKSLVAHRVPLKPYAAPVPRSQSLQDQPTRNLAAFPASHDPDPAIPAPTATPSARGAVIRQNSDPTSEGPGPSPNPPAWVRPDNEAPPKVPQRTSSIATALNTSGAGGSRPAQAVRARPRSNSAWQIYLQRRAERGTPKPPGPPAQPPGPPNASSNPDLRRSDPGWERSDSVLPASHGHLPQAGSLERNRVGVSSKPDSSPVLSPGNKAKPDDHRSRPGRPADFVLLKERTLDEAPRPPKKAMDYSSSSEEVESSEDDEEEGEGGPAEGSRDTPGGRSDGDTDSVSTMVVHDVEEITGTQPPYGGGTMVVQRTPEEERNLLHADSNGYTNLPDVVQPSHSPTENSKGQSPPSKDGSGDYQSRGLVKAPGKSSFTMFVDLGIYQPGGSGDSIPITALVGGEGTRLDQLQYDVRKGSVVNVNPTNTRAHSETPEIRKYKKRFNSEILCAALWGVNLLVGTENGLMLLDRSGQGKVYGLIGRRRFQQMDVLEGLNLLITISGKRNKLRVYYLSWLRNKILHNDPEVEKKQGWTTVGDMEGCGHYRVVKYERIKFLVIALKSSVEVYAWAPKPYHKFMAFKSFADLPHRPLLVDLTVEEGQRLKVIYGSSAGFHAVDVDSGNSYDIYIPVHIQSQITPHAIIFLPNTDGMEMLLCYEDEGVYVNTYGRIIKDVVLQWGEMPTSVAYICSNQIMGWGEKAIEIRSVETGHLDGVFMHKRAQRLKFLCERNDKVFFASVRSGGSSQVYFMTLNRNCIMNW
MAP2K1 (human), sequence (Q02750 whole entry, looked up): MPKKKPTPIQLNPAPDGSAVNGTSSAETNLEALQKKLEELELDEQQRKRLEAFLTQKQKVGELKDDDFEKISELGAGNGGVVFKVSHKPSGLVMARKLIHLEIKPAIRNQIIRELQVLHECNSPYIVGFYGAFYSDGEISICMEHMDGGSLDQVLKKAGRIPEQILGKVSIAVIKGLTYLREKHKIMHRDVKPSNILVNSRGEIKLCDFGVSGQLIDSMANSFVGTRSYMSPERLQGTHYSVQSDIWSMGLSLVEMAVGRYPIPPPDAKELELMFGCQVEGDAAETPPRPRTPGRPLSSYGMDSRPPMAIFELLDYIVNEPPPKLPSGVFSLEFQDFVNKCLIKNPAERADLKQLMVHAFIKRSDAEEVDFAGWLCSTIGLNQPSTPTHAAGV
EPHA4 (human), sequence (P54764 whole entry, looked up): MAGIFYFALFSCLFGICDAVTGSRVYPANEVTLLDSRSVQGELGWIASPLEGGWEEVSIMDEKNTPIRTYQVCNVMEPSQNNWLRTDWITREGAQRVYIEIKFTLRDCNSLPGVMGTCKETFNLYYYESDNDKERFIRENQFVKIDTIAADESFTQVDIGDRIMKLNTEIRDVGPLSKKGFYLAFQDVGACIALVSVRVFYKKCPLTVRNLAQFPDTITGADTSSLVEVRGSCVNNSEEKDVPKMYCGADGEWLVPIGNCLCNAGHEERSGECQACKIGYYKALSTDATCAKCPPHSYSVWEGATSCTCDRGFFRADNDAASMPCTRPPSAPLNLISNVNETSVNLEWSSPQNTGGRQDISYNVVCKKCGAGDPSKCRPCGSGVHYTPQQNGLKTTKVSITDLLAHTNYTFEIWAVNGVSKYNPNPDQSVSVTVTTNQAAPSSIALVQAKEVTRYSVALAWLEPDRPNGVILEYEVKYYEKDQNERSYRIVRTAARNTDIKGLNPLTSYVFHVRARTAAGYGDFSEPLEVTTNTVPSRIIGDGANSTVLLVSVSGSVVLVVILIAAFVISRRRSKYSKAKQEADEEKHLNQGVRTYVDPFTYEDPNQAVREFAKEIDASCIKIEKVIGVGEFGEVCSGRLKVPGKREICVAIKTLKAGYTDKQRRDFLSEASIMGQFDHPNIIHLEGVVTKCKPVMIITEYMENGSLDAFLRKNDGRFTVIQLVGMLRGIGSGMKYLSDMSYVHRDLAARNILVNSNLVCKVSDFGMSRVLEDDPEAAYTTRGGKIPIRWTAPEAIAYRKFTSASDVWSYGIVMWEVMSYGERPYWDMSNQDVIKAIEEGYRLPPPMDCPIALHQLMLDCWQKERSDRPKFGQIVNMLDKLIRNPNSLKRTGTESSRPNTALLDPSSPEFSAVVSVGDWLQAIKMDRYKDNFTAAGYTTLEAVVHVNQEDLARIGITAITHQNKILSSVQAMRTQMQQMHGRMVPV
CAMKK2 (human), sequence (Q96RR4 whole entry, looked up): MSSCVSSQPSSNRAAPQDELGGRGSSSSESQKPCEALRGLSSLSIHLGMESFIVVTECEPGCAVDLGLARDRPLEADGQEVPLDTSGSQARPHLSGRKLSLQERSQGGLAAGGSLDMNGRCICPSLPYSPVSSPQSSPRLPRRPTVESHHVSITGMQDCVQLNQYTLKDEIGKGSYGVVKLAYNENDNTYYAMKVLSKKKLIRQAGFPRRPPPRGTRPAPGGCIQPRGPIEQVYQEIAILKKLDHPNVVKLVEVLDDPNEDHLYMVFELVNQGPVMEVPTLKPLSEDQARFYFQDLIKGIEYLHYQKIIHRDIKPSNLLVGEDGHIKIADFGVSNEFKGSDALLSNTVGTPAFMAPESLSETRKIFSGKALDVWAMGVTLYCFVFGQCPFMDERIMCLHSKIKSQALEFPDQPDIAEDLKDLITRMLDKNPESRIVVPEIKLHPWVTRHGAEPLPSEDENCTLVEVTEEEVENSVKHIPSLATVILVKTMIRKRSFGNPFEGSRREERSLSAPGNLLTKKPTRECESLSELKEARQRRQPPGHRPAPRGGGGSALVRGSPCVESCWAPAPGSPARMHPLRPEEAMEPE
RIPK2 (human), sequence (O43353 whole entry, looked up): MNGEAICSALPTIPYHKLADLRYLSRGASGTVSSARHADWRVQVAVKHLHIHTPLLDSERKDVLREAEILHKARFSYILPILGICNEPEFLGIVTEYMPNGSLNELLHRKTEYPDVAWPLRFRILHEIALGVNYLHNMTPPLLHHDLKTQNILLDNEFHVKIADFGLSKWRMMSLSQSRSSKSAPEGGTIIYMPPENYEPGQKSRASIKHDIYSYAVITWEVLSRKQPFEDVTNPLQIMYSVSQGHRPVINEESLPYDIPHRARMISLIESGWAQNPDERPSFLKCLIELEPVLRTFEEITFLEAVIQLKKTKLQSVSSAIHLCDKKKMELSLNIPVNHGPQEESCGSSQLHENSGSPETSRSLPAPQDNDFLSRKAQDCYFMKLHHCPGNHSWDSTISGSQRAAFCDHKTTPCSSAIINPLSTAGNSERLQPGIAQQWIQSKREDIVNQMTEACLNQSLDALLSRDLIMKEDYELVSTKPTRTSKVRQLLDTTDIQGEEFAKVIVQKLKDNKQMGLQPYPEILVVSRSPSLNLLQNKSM
MARK1 (human), sequence (Q9P0L2 whole entry, looked up): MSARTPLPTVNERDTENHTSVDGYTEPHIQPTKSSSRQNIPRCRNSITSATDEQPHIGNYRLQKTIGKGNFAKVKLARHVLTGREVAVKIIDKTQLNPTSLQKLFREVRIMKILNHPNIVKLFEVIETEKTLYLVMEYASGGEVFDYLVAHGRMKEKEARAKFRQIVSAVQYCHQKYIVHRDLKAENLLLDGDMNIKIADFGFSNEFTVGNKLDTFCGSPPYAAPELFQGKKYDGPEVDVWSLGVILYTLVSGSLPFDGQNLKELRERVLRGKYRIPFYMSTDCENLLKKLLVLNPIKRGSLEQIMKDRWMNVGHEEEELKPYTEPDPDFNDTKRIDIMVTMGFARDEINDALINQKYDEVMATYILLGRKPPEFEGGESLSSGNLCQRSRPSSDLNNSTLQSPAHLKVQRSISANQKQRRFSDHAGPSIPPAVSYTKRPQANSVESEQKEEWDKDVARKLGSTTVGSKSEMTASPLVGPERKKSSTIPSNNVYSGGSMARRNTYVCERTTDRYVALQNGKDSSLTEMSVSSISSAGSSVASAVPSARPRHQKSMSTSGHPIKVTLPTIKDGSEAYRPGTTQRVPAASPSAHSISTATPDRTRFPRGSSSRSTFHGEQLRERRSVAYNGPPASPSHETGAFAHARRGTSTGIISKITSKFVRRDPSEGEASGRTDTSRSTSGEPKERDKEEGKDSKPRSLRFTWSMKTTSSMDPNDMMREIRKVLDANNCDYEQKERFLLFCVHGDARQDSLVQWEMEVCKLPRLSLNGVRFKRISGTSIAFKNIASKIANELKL
MAPKAPK2 (human), sequence (P49137 whole entry, looked up): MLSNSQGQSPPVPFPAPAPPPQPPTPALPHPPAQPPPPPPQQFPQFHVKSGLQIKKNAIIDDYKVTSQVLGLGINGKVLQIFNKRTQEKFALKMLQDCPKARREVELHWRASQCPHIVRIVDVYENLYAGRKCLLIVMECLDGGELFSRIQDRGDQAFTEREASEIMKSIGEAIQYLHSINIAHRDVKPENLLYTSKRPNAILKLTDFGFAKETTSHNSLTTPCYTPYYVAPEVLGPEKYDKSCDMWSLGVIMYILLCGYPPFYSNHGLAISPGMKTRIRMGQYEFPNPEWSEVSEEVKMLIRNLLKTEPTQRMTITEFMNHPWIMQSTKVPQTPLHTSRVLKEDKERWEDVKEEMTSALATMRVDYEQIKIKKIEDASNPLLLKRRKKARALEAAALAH

Nc1cccc2c1CN(C1CCC(=O)NC1=O)C2=O (stereo not drawn)
residual activity (PHKG1 (human); compound 1.0 µM): 101%
residual activity (PHKG1 (human); compound 10.0 µM): 103%
residual activity (RIPK2 (human); compound 1.0 µM): 97%
residual activity (RIPK2 (human); compound 10.0 µM): 106%
residual activity (MINK1 (human); compound 1.0 µM): 111%
residual activity (MINK1 (human); compound 10.0 µM): 118%
residual activity (PRKAA1 or PRKAA2 (rat); compound 1.0 µM): 98%
residual activity (PRKAA1 or PRKAA2 (rat); compound 10.0 µM): 92%
residual activity (INSRR (human); compound 1.0 µM): 102%
residual activity (INSRR (human); compound 10.0 µM): 109%
residual activity (MAPK15 (human); compound 1.0 µM): 92%
residual activity (MAPK15 (human); compound 10.0 µM): 98%
residual activity (SRPK1 (human); compound 1.0 µM): 104%
residual activity (SRPK1 (human); compound 10.0 µM): 104%
residual activity (PRKCA (human); compound 1.0 µM): 107%
residual activity (PRKCA (human); compound 10.0 µM): 100%
residual activity (MARK2 (human); compound 1.0 µM): 99%
residual activity (MARK2 (human); compound 10.0 µM): 104%
residual activity (JAK2 JH1 JH2 (human); compound 1.0 µM): 103%
residual activity (JAK2 JH1 JH2 (human); compound 10.0 µM): 93%
residual activity (MARK1 (human); compound 1.0 µM): 98%
residual activity (MARK1 (human); compound 10.0 µM): 100%
residual activity (MKNK1 (human); compound 1.0 µM): 116%
residual activity (MKNK1 (human); compound 10.0 µM): 111%
residual activity (EPHA2 (human)): 96%
residual activity (CaMK1 (human); compound 1.0 µM): 103%
residual activity (CaMK1 (human); compound 10.0 µM): 91%
residual activity (MST4 (human); compound 1.0 µM): 106%
residual activity (MST4 (human); compound 10.0 µM): 112%
residual activity (MAPKAPK2 (human); compound 1.0 µM): 79%
residual activity (MAPKAPK2 (human); compound 10.0 µM): 92%
residual activity (CSK (human); compound 1.0 µM): 87%
residual activity (CSK (human); compound 10.0 µM): 97%
residual activity (CDK2 CCNA2 (human); compound 1.0 µM): 96%
residual activity (CDK2 CCNA2 (human); compound 10.0 µM): 87%
residual activity (CAMKK2 (human); compound 1.0 µM): 92%
residual activity (CAMKK2 (human); compound 10.0 µM): 84%
residual activity (NEK6 (human); compound 1.0 µM): 105%
residual activity (NEK6 (human); compound 10.0 µM): 96%
residual activity (BRSK1 (human); compound 1.0 µM): 84%
residual activity (BRSK1 (human); compound 10.0 µM): 94%
residual activity (MAP2K1 (human); compound 1.0 µM): 90%
residual activity (MAP2K1 (human); compound 10.0 µM): 92%
residual activity (DYRK2 (human); compound 1.0 µM): 101%
residual activity (DYRK2 (human); compound 10.0 µM): 103%
residual activity (ERBB4 (human)): 106%
residual activity (BTK (human); compound 1.0 µM): 104%
residual activity (BTK (human); compound 10.0 µM): 107%
residual activity (RPS6KA5 KD1 KD2 (human)): 91%
residual activity (EPHB2 (human); compound 1.0 µM): 107%
residual activity (EPHB2 (human); compound 10.0 µM): 113%
residual activity (PAK7 (human); compound 1.0 µM): 86%
residual activity (PAK7 (human); compound 10.0 µM): 77%
residual activity (NUAK1 (human)): 99%
residual activity (EPHA4 (human); compound 1.0 µM): 110%
residual activity (EPHA4 (human); compound 10.0 µM): 124%
residual activity (NEK2 (human); compound 1.0 µM): 97%
residual activity (NEK2 (human); compound 10.0 µM): 96%
residual activity (LCK (mouse); compound 1.0 µM): 100%
residual activity (LCK (mouse); compound 10.0 µM): 99%
residual activity (INSR (human)): 107%
residual activity (PRKACA (human); compound 1.0 µM): 101%
residual activity (PRKACA (human); compound 10.0 µM): 84%
